Results published in US20230338349A1, “LOW DOSE REGIMEN AND FORMULATION OF A 5-METHYL-1,2,4-OXADIAZOL-3-YL COMPOUND” (Eli Lilly and Company, priority 2020, published 2023).
Where two headings read alike, the source gives them in different places.

Assay: Single ascending dose study in healthy subjects, pharmacokinetics of compound of Formula I
Type: in vivo, human
Details: for concentration at 0.5 h / concentration at 1 h / concentration at 1.5 h / concentration at 2 h / concentration at 3 h / concentration at 4 h / concentration at 5 h / concentration at 6 h / concentration at 8 h / concentration at 12 h / concentration at 24 h / concentration at 48 h / Tmax / half-life / Cmax / CL renal / Vd/F: human, plasma; for concentration at 0.5 h / concentration at 1 h / concentration at 1.5 h / concentration at 2 h / concentration at 3 h / concentration at 4 h / concentration at 5 h / concentration at 6 h / concentration at 8 h / concentration at 12 h / concentration at 24 h / concentration at 48 h: mean; for Vd/F: read-out: Vz/F (apparent volume of distribution after oral administration)
Procedure: A Phase 1, single-center, subject- and investigator-blind, single-ascending dose, placebo-controlled, crossover, randomized study is performed to evaluate safety, tolerability, and pharmacokinetics (PK) of the compound of Formula I in healthy subjects. The study is conducted in 2 alternating cohorts (cohorts 1 and 2) in up to 3 study periods across 6 dose levels. Subjects are randomized to 1 of 3 treatment sequences in each cohort, with each sequence including 2 doses of compound of Formula I and 1 placebo dose over the 3 study periods in a complete crossover manner.
After an overnight fast of at least 8 hours, oral capsules are administered with approximately 240 mL of room-temperature water in the morning of each dosing day in a sitting position. Doses of 0.15 mg to 2 mg are administered as an oral solution of compound of Formula I via an oral dosing syringe with water similar to oral capsule dosing.
The capsules containing the compound of Formula I are prepared extemporaneously. Oral doses of 0.15 mg to 2 mg of the compound of Formula I are prepared extemporaneously as drug in solution. For any specific cohort/dosing period, the total number of capsules administered is the same for all subjects, regardless of whether assigned to placebo or the compound of Formula I. However, the number of capsules may vary between dosing periods and cohorts. This is similarly the case for extemporaneously prepared oral dosing solutions to maintain the blind. […] A matching volume of oral solution vehicle without compound of Formula I is used as placebo for the doses of 0.15 mg to 2 mg.
Venous blood samples of approximately 3 mL each are collected to determine the plasma concentrations of compound of Formula I. Concentrations of compound of Formula I are assayed using a validated liquid chromatography with tandem mass spectrometry method. PK parameter estimates for compound of Formula I are calculated using standard noncompartmental methods of analysis. Plasma concentrations of compound of Formula I are summarized by administered dose of compound of Formula I and the approximate time of PK blood sample collection. Following the procedure essentially as described above, PK data for a single ascending dose of the compound of Formula I in healthy subjects are set forth in Table 3 and Table 4.

[1] = single oral dose 0.6 mg, geometric mean (% CV)
[2] = single oral dose 2 mg, geometric mean (% CV)
[3] = single oral dose 5 mg, geometric mean (% CV)
[4] = single oral dose 10 mg, geometric mean (% CV)
[5] = single oral dose 16 mg, geometric mean (% CV)

SMILES: CC(=O)Nc1nc(F)c(CN2CC[C@H](OCc3noc(C)n3)C[C@@H]2C)s1 [compound of Formula I, N-[4-fluoro-5-[[(2S,4S)-2-methyl-4-[(5-methyl-1,2,4-oxadiazol-3-yl)methoxy]-1-piperidyl]methyl]thiazol-2-yl]acetamide]
- AUC(0-∞) dose proportionality (0.6-mg to 16-mg dose range): increase approximately dose-proportionally
- Cmax dose proportionality (0.6-mg to 16-mg dose range): increase approximately dose-proportionally
- concentration at 0.5 h (single oral dose 0.15 mg): 0.271 ng/mL
- concentration at 1 h (single oral dose 0.15 mg): 0.278 ng/mL
- concentration at 1.5 h (single oral dose 0.15 mg): 0.246 ng/mL
- concentration at 2 h (single oral dose 0.15 mg): 0.179 ng/mL
- concentration at 3 h (single oral dose 0.15 mg): 0.161 ng/mL
- concentration at 0.5 h (single oral dose 0.6 mg): 6.15 ng/mL
- concentration at 1 h (single oral dose 0.6 mg): 6.25 ng/mL
- concentration at 1.5 h (single oral dose 0.6 mg): 5.21 ng/mL
- concentration at 2 h (single oral dose 0.6 mg): 4.84 ng/mL
- concentration at 3 h (single oral dose 0.6 mg): 3.96 ng/mL
- concentration at 4 h (single oral dose 0.6 mg): 3.6 ng/mL
- concentration at 5 h (single oral dose 0.6 mg): 3.02 ng/mL
- concentration at 6 h (single oral dose 0.6 mg): 2.35 ng/mL
- concentration at 8 h (single oral dose 0.6 mg): 2.1 ng/mL
- concentration at 12 h (single oral dose 0.6 mg): 1.09 ng/mL
- concentration at 24 h (single oral dose 0.6 mg): 0.307 ng/mL
- concentration at 0.5 h (single oral dose 2 mg): 16.2 ng/mL
- concentration at 1 h (single oral dose 2 mg): 21.8 ng/mL
- concentration at 1.5 h (single oral dose 2 mg): 19.5 ng/mL
- concentration at 2 h (single oral dose 2 mg): 18.6 ng/mL
- concentration at 3 h (single oral dose 2 mg): 15.3 ng/mL
- concentration at 4 h (single oral dose 2 mg): 12.6 ng/mL
- concentration at 5 h (single oral dose 2 mg): 10.5 ng/mL
- concentration at 6 h (single oral dose 2 mg): 8.75 ng/mL
- concentration at 8 h (single oral dose 2 mg): 7.09 ng/mL
- concentration at 12 h (single oral dose 2 mg): 4.24 ng/mL
- concentration at 24 h (single oral dose 2 mg): 1.34 ng/mL
- concentration at 0.5 h (single oral dose 5 mg): 14.6 ng/mL
- concentration at 1 h (single oral dose 5 mg): 58.9 ng/mL
- concentration at 1.5 h (single oral dose 5 mg): 55.3 ng/mL
- concentration at 2 h (single oral dose 5 mg): 50.3 ng/mL
- concentration at 3 h (single oral dose 5 mg): 43.1 ng/mL
- concentration at 4 h (single oral dose 5 mg): 36.5 ng/mL
- concentration at 5 h (single oral dose 5 mg): 29.5 ng/mL
- concentration at 6 h (single oral dose 5 mg): 24.8 ng/mL
- concentration at 8 h (single oral dose 5 mg): 18.4 ng/mL
- concentration at 12 h (single oral dose 5 mg): 9.74 ng/mL
- concentration at 24 h (single oral dose 5 mg): 2.76 ng/mL
- concentration at 48 h (single oral dose 5 mg): 0.634 ng/mL
- concentration at 0.5 h (single oral dose 10 mg): 28.8 ng/mL
- concentration at 1 h (single oral dose 10 mg): 122 ng/mL
- concentration at 1.5 h (single oral dose 10 mg): 127 ng/mL
- concentration at 2 h (single oral dose 10 mg): 125 ng/mL
- concentration at 3 h (single oral dose 10 mg): 106 ng/mL
- concentration at 4 h (single oral dose 10 mg): 100 ng/mL
- concentration at 5 h (single oral dose 10 mg): 81.7 ng/mL
- concentration at 6 h (single oral dose 10 mg): 72.3 ng/mL
- concentration at 8 h (single oral dose 10 mg): 55.1 ng/mL
- concentration at 12 h (single oral dose 10 mg): 32.7 ng/mL
- concentration at 24 h (single oral dose 10 mg): 11 ng/mL
- concentration at 48 h (single oral dose 10 mg): 2.28 ng/mL
- concentration at 0.5 h (single oral dose 16 mg): 59.7 ng/mL
- concentration at 1 h (single oral dose 16 mg): 150 ng/mL
- concentration at 1.5 h (single oral dose 16 mg): 183 ng/mL
- concentration at 2 h (single oral dose 16 mg): 187 ng/mL
- concentration at 3 h (single oral dose 16 mg): 153 ng/mL
- concentration at 4 h (single oral dose 16 mg): 127 ng/mL
- concentration at 5 h (single oral dose 16 mg): 100 ng/mL
- concentration at 6 h (single oral dose 16 mg): 88 ng/mL
- concentration at 8 h (single oral dose 16 mg): 63 ng/mL
- concentration at 12 h (single oral dose 16 mg): 32.2 ng/mL
- concentration at 24 h (single oral dose 16 mg): 6.83 ng/mL
- concentration at 48 h (single oral dose 16 mg): 0.828 ng/mL
- Tmax (oral, summary over the single ascending doses, read-out: median tmax): ~1 h
- half-life (oral, summary over the single ascending doses, read-out: t1/2 (converted)): ~360 min
- Cmax (single oral dose 0.15 mg, geometric mean (% CV)): 0.318 ng/mL
- Tmax (single oral dose 0.15 mg, median, read-out: tmax): 1.02 h
- Cmax [1]: 6.61 ng/mL
- CL renal (single oral dose 0.6 mg, geometric mean (% CV), read-out: CLr (renal clearance) (converted)): 19.5 mL/min
- Vd/F [1]: 120 L
- half-life (single oral dose 0.6 mg, geometric mean, read-out: t1/2 (terminal half-life) (converted)): 365 min
- Tmax (single oral dose 0.6 mg, median, read-out: tmax): 1 h
- Cmax [2]: 20.9 ng/mL
- CL renal (single oral dose 2 mg, geometric mean (% CV), read-out: CLr (renal clearance) (converted)): 20.8 mL/min
- Vd/F [2]: 119 L
- half-life (single oral dose 2 mg, geometric mean, read-out: t1/2 (terminal half-life) (converted)): 329 min
- Tmax (single oral dose 2 mg, median, read-out: tmax): 1.25 h
- Cmax [3]: 59.1 ng/mL
- CL renal (single oral dose 5 mg, geometric mean (% CV), read-out: CLr (renal clearance) (converted)): 19.7 mL/min
- Vd/F [3]: 114 L
- half-life (single oral dose 5 mg, geometric mean, read-out: t1/2 (terminal half-life) (converted)): 374 min
- Tmax (single oral dose 5 mg, median, read-out: tmax): 1.02 h
- Cmax [4]: 134 ng/mL
- CL renal (single oral dose 10 mg, geometric mean (% CV), read-out: CLr (renal clearance) (converted)): 20.3 mL/min
- Vd/F [4]: 104 L
- half-life (single oral dose 10 mg, geometric mean, read-out: t1/2 (terminal half-life) (converted)): 529 min
- Tmax (single oral dose 10 mg, median, read-out: tmax): 1.5 h
- Cmax [5]: 199 ng/mL
- CL renal (single oral dose 16 mg, geometric mean (% CV), N = 3, read-out: CLr (renal clearance) (converted)): 16 mL/min
- Vd/F [5]: 102 L
- half-life (single oral dose 16 mg, geometric mean, read-out: t1/2 (terminal half-life) (converted)): 355 min
- Tmax (single oral dose 16 mg, median, read-out: tmax): 1.98 h
- Ae0-24 (amount excreted in urine up to 24 hours postdose) (single oral dose 0.15 mg, geometric mean, N=5): 0.003 mg
- AUC(0-∞) [1]: 44.0 (33) ngxh/mL
- Ae0-24 (amount excreted in urine up to 24 hours postdose) [1]: 0.048 (53%) mg
- CL/F (apparent clearance calculated after oral administration) [1]: 13.6 (33) L/h
- AUC(0-∞) [2]: 133 (88) ngxh/mL
- Ae0-24 (amount excreted in urine up to 24 hours postdose) [2]: 0.155 (57%) mg
- CL/F (apparent clearance calculated after oral administration) [2]: 15.1 (88) L/h
- AUC(0-∞) [3]: 396 (39) ngxh/mL
- Ae0-24 (amount excreted in urine up to 24 hours postdose) [3]: 0.436 (57%) mg
- CL/F (apparent clearance calculated after oral administration) [3]: 12.6 (39) L/h
- AUC(0-∞) [4]: 1220 (28) ngxh/mL
- Ae0-24 (amount excreted in urine up to 24 hours postdose) [4]: 1.3 (30%) mg
- CL/F (apparent clearance calculated after oral administration) [4]: 8.20 (28) L/h
- AUC(0-∞) [5]: 1340 (19) ngxh/mL
- Ae0-24 (amount excreted in urine up to 24 hours postdose) [5]: 1.14 (36%) mg
- CL/F (apparent clearance calculated after oral administration) [5]: 11.9 (19) L/h
